Data reported in ChEMBL document CHEMBL3868598, “Synthesis, structure-activity relationship and molecular docking of 3-oxoaurones and 3-thioaurones as acetylcholinesterase and butyrylcholinesterase inhibitors” (Bioorg Med Chem, 2017).

Key:
Acetylcholinesterase = Acetylcholinesterase (Homo sapiens, UniProt P22303); test: Inhibition of acetylcholinesterase (unknown origin) using acetylthiocholine iodide as substrate incubated for 10 mins followed by substrate addition measured after 20 mins by UV-Vis spectrophotometric analysis
Acetylcholinesterase, sequence (P22303 whole entry): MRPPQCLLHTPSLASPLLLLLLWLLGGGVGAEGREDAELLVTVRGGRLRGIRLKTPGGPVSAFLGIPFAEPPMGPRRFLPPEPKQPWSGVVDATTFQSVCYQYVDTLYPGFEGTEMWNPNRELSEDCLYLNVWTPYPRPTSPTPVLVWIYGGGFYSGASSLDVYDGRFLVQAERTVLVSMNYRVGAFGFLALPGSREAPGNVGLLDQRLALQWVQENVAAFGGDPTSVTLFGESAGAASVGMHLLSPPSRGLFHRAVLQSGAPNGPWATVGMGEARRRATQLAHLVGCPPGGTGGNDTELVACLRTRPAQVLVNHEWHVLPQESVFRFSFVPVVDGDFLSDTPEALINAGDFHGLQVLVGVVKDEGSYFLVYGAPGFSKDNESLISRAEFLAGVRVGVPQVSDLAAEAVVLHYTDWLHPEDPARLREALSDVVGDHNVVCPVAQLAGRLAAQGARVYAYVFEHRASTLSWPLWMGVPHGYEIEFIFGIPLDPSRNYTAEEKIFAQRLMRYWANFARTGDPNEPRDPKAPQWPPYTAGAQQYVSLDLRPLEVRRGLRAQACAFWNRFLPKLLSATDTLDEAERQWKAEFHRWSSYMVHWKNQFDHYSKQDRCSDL

Cholinesterase = Cholinesterase (Homo sapiens, UniProt P06276); test: Inhibition of butyrylcholinesterase (unknown origin) using butyrylthiocholine chloride as substrate incubated for 10 mins followed by substrate addition measured after 20 mins by UV-Vis spectrophotometric analysis
Cholinesterase, sequence (P06276 whole entry): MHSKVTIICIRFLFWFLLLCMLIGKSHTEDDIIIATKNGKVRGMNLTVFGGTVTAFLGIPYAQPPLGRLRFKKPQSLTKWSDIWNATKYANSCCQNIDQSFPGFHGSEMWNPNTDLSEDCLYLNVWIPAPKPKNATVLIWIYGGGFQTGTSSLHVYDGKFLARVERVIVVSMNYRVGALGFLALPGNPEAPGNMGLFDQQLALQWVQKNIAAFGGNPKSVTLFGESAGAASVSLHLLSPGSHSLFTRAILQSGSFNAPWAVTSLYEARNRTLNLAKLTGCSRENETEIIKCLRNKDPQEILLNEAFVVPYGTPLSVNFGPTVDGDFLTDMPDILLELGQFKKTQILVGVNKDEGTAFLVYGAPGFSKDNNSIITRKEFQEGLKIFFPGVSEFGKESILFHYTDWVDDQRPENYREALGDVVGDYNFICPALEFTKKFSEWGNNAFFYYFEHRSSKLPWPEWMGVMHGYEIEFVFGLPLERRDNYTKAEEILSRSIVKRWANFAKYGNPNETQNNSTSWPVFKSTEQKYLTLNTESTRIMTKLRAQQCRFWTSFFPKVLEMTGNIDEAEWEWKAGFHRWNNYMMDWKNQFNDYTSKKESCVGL

SMILES	IC50 (Acetylcholinesterase)	IC50 (Cholinesterase)
CC(C)Cc1ccc(/C=C2\Oc3ccccc3C2=O)cc1	0.98 µM	1.02 µM
Fc1ccc(/C=C2\Oc3ccccc3C2=S)cc1		5.27 µM
S=C1/C(=C/c2ccccc2)Oc2ccccc21	6.39 µM	
COc1ccc(/C=C2\Oc3ccccc3C2=O)cc1 [4'-METHOXY-AURONE]	1.26 µM	
